Data as given in EP2663342B1, “STABLE HYDROGEL COMPOSITIONS INCLUDING PHENYLEPHRINE” (ALLERGAN, INC., priority 2011, dated 2012).

Columns and labels:
Type in all cases: physicochemical
[1] = Extrusion force of HA-based gel after autoclaving; conditions: ΔF vs HA gel without the added ingredients
From the text: Stability of a hydrogel composition disclosed herein can be determined by subjecting a hydrogel composition to a heat treatment, such as, e.g., steam sterilization at normal pressure or under pressure (e.g., autoclaving). […] Substantial stability of a hydrogel composition disclosed herein can be evaluated 1) by determining the change in the extrusion force (ΔF) of a hydrogel composition disclosed herein after sterilization, where the change in extrusion force less 2N is indicative of a substantially stable hydrogel composition as measured by (the extrusion force of a hydrogel composition with the specified additives) minus (the extrusion force of the a hydrogel composition without the added additives); and/or 2) by determining the change in rheological properties of a hydrogel composition disclosed herein after sterilization, where the change in tan δ 1 Hz of less than 0.1 is indicative of a substantially stable hydrogel composition as measured by (tan δ 1 Hz of gel formulation with additives) minus (tan δ 1 Hz of gel formulation without additives). As such, a substantially stable hydrogel composition disclosed herein retains one or more of the following characteristics after sterilization: homogeneousness, extrusion force, cohesiveness, hyaluronan concentration, agent(s) concentration, osmolarity, pH, or other rheological characteristics desired by the hydrogel before the heat treatment.
(§1) The hydrogel properties, aspect (i.e., color/clarity/homogeneity), and extrusion force were analyzed after autoclaving and at 3 years equivalent at room temperature.

[2] = Extrusion force of HA-based gel at 3 years equivalent at room temperature
Method: as §1

[3] = Aspect (color/clarity/homogeneity) of HA-based gel after autoclaving; conditions: for Aspect: after autoclaving and at 3 years equivalent at room temperature
Method: The active ingredient was incorporated into a HA-based gel matrix and autoclaved by steam sterilization at a temperature between about 130 °C to about 135 °C for between about one minute and about 10 minutes. The hydrogel properties, aspect (i.e., color/clarity/homogeneity), and extrusion force were analyzed after autoclaving and at 3 years equivalent at room temperature. All formulations were clear, homogenous, uncolored, and had acceptable extrusion force properties after autoclaving and at the 3-year equivalent mark (Table 3).
Ascorbic acid, at a concentration of 1% (w/w) was, incorporated in a HA-based gel matrix, and the pH of the gel adjusted to about 7 and then autoclaved by steam sterilization at a temperature between about 130 °C to about 135 °C for between about one minute and about 10 minutes.

[4] = Oxidation testing: degradation by free radicals (H2O2) on a rheometer; conditions: gel with AA2G and lidocaine versus gel with lidocaine
From the text: The effect of ascorbic acid 2-glucoside (AA2G™) on HA-based gel matrix oxidative degradation was studied. Oxidation testing was used as it allows testing of the resistance of a HA-based gel matrix to free radicals. Degradation by free radicals was simulated on a rheometer (Haake Rheostress 600) by addition of 1/7 ratio of H2O2 30% on the surface of a spread gel measured with a controlled stress rheometer according to the following method: frequency of 1 Hz with 0.8% controlled strain, during 3600 s at 35 °C. The time value is taken at 5 Pa/s.

[5] = Aspect (color/clarity/homogeneity) of HA-based gel after autoclaving
[6] = ingredient at 0.3 % in HA-based gel matrix
[7] = ingredient at 0.5 % in HA-based gel matrix
[8] = ingredient at 1 % in HA-based gel matrix

Compound: NC(=O)NC1NC(=O)NC1=O (stereo not drawn) [Allantoin]
- Extrusion force (N) after autoclaving [1, 6]: PASSED (the change of extrusion force (ΔF) was less than two Newtons (< 2 N))
- Extrusion force (N) after autoclaving [1, 7]: PASSED (the change of extrusion force (ΔF) was less than two Newtons (< 2 N))
- Extrusion force (N) 3 years ∼ room T °C [2, 6]: PASSED (the change of extrusion force (ΔF) was less than two Newtons (< 2 N))
- Extrusion force (N) 3 years ∼ room T °C [2, 7]: PASSED (the change of extrusion force (ΔF) was less than two Newtons (< 2 N))

Compound: Cc1cc(=O)n(-c2ccccc2)n1C [Antipyrin, reference compound]
- Extrusion force (N) after autoclaving [1, 7]: PASSED (the change of extrusion force (ΔF) was less than two Newtons (< 2 N))
- Extrusion force (N) after autoclaving [1, 8]: PASSED (the change of extrusion force (ΔF) was less than two Newtons (< 2 N))
- Extrusion force (N) 3 years ∼ room T °C [2, 7]: PASSED (the change of extrusion force (ΔF) was less than two Newtons (< 2 N))
- Extrusion force (N) 3 years ∼ room T °C [2, 8]: PASSED (the change of extrusion force (ΔF) was less than two Newtons (< 2 N))
- Aspect [3, 7]: Clear Homogeneous Uncolored
- Aspect [3, 8]: Clear Homogeneous Uncolored

Compound: O=C1O[C@H]([C@@H](O)CO)C(O)=C1O[C@H]1O[C@H](CO)[C@@H](O)[C@H](O)[C@H]1O [Ascorbic acid 2-Glucoside]
- protected against oxidative degradation by a factor [4]: 3
- aspect of gel after autoclaving ([5]; 0.6% (w/w), 1% (w/w), or 2% (w/w) AA2G in HA-based gel matrix, pH about 7, same before autoclaving): clear and uncolored

Compound: O=C1O[C@H]([C@@H](O)CO)C(O)=C1O [Ascorbic acid, (5R)-[(1S)-1,2-dihydroxyethyl]-3,4-dihydroxyfuran-2(5H)-one]
- aspect of gel after autoclaving ([3]; 1% (w/w) in HA-based gel matrix, pH about 7, clear and uncolored before autoclaving): clear but yellowed

Compound: Nc1ccn([C@@H]2O[C@H](CO)[C@@H](O)[C@H]2O)c(=O)n1 [Cytidine]
- Extrusion force (N) after autoclaving [1, 7]: PASSED (the change of extrusion force (ΔF) was less than two Newtons (< 2 N))
- Extrusion force (N) after autoclaving [1, 8]: PASSED (the change of extrusion force (ΔF) was less than two Newtons (< 2 N))
- Extrusion force (N) 3 years ∼ room T °C [2, 7]: PASSED (the change of extrusion force (ΔF) was less than two Newtons (< 2 N))
- Extrusion force (N) 3 years ∼ room T °C [2, 8]: PASSED (the change of extrusion force (ΔF) was less than two Newtons (< 2 N))

Compound: CC(C)(CO)[C@@H](O)C(=O)NCCCO [Dexpanthenol]
- aspect of gel after autoclaving ([5]; 1% (w/w) in HA-based gel matrix comprising 0.3% (w/w) lidocaine, same before autoclaving): clear and uncolored

Compound: CNC[C@H](O)c1ccc(O)c(O)c1 [Epinephrine bitartrate]
- aspect of gel after autoclaving ([5]; 10 ppm in HA-based gel matrix comprising 0.3% (w/w) lidocaine, clear and uncolored before autoclaving): clear but colored
- aspect of gel after autoclaving ([5]; 10 ppm in HA-based gel matrix, same before autoclaving): clear and uncolored
- aspect of gel after autoclaving ([5]; 20 ppm in HA-based gel matrix comprising 0.3% (w/w) lidocaine and 4.5% (w/w) mannitol, clear and uncolored before autoclaving): slightly colored

Compound: CNC[C@H](O)c1ccc(O)c(O)c1 [Epinephrine, (R)-4-(1-hydroxy-2-(methylamino)ethyl)benzene-1,2-diol]
- aspect of gel after autoclaving ([5]; 10 ppm in HA-based gel matrix with 0.9% (w/w) mannitol): slightly colored
- aspect of gel after autoclaving ([5]; 10 ppm in HA-based gel matrix with 4.5% (w/w) mannitol, same before autoclaving): clear and uncolored

Compound: CC12CCC(CC1)C(C)(C)O2 [Eucalyptol]
- Extrusion force (N) after autoclaving [1, 7]: PASSED (the change of extrusion force (ΔF) was less than two Newtons (< 2 N))
- Extrusion force (N) 3 years ∼ room T °C [2, 7]: PASSED (the change of extrusion force (ΔF) was less than two Newtons (< 2 N))

Compound: OCC(O)CO [Glycerin]
- Extrusion force (N) after autoclaving [1, 7]: PASSED (the change of extrusion force (ΔF) was less than two Newtons (< 2 N))
- Extrusion force (N) 3 years ∼ room T °C [2, 7]: PASSED (the change of extrusion force (ΔF) was less than two Newtons (< 2 N))

Compound: O=C1O[C@H]([C@@H](O)CO)C([O-])=C1OP(=O)([O-])[O-].O=C1O[C@H]([C@@H](O)CO)C([O-])=C1OP(=O)([O-])[O-].[Mg+2].[Mg+2].[Mg+2] [Magnesium Ascorbyl Phosphate]
- aspect of gel after autoclaving ([5]; 0.6% (w/w), 1% (w/w) or 2% (w/w) MAP in HA-based gel matrix, pH about 7, same before autoclaving): clear and uncolored

Compound: c1ccc2c(CC3=NCCN3)cccc2c1 [Naphazoline, 2-(1-naphthylmethyl)-2-imidazoline]
- aspect of gel after autoclaving ([5]; 100 ppm naphazoline in HA-based gel matrix comprising 0.3% (w/w) lidocaine, same before autoclaving): clear and uncolored

Compound: CNC[C@H](O)c1cccc(O)c1 [Phenylephrine, (R)-3-[-1-hydroxy-2-(methylamino)ethyl]phenol]
- aspect of gels after autoclaving ([5]; 100 ppm or 400ppm phenylephrine in HA-based gel matrixes comprising 0.3% (w/w) lidocaine, same before autoclaving): clear and uncolored

Compound: O=C1O[C@H]([C@@H](O)CO)C([O-])=C1OP(=O)([O-])[O-].[Na+].[Na+].[Na+] [Sodium Ascorbyl Phosphate]
- aspect of gel after autoclaving ([5]; 0.6% (w/w), 1% (w/w), or 2% (w/w) SAP in HA-based gel matrix, pH about 7, same before autoclaving): clear and uncolored

Compound: Cc1c(C)c2c(c(C)c1OP(=O)([O-])[O-])CCC(C)(CCCC(C)CCCC(C)CCCC(C)C)O2.[Na+].[Na+] (stereo not drawn) [Sodium Tocopheryl Phosphate]
- aspect of gel after autoclaving ([5]; 0.4% (w/w) or 1.2% (w/w) in HA-based gel matrix): unclear and white

Compound: CNCC(O)c1ccc(O)cc1 (stereo not drawn) [Synephrine, 4-[1-hydroxy-2-(methylamino)ethyl]phenol]
- aspect of gel after autoclaving ([5]; 100 ppm synephrine in HA-based gel matrix comprising 0.3% (w/w) lidocaine, same before autoclaving): clear and uncolored

Compound: Cc1cn([C@H]2C[C@H](O)[C@@H](CO)O2)c(=O)[nH]c1=O [Thymidine]
- Extrusion force (N) after autoclaving [1, 7]: PASSED (the change of extrusion force (ΔF) was less than two Newtons (< 2 N))
- Extrusion force (N) after autoclaving [1, 8]: PASSED (the change of extrusion force (ΔF) was less than two Newtons (< 2 N))
- Extrusion force (N) 3 years ∼ room T °C [2, 7]: PASSED (the change of extrusion force (ΔF) was less than two Newtons (< 2 N))
- Extrusion force (N) 3 years ∼ room T °C [2, 8]: PASSED (the change of extrusion force (ΔF) was less than two Newtons (< 2 N))

Compound: CC(=O)Oc1c(C)c(C)c2c(c1C)CCC(C)(CCC[C@H](C)CCC[C@H](C)CCCC(C)C)O2 (stereo partly drawn) [Tocopheryl Acetate]
- aspect of gel after autoclaving ([5]; 0.5% (w/w) or 1.2% (w/w) in HA-based gel matrix): unclear and white

Compound: NC[C@H]1CC[C@H](C(=O)O)CC1 [Tranexamic acid, reference compound]
- Extrusion force (N) after autoclaving [1, 7]: PASSED (the change of extrusion force (ΔF) was less than two Newtons (< 2 N))
- Extrusion force (N) 3 years ∼ room T °C [2, 7]: PASSED (the change of extrusion force (ΔF) was less than two Newtons (< 2 N))
- aspect of gel after autoclaving ([5]; 0.4% (w/w) tranexamic acid in HA-based gel matrix comprising 0.3% (w/w) lidocaine, same before autoclaving): clear and uncolored

Compound: O=c1ccn([C@@H]2O[C@H](CO)[C@@H](O)[C@H]2O)c(=O)[nH]1 [Uridine]
- Extrusion force (N) after autoclaving [1, 7]: PASSED (the change of extrusion force (ΔF) was less than two Newtons (< 2 N))
- Extrusion force (N) after autoclaving [1, 8]: PASSED (the change of extrusion force (ΔF) was less than two Newtons (< 2 N))
- Extrusion force (N) 3 years ∼ room T °C [2, 7]: PASSED (the change of extrusion force (ΔF) was less than two Newtons (< 2 N))
- Extrusion force (N) 3 years ∼ room T °C [2, 8]: PASSED (the change of extrusion force (ΔF) was less than two Newtons (< 2 N))
- Aspect [3, 7]: Clear Homogeneous Uncolored
- Aspect [3, 8]: Clear Homogeneous Uncolored

Compound: Polyoxyethanyl-α-tocopheryl sebacate
- aspect of gel after autoclaving ([5]; 0.7% (w/w) in HA-based gel matrix): clear, but heterogeneous
